Measurements: US12667583B2, “Method for preventing or treating a cornavirus infectious disease” (HENAN GENUINE BIOTECH CO., LTD., priority 2020, dated 2026)
Entries after “also recorded” stand apart in the source; their conditions may differ.

Assays:
[1] = test system: 2019-nCoV (COVID-19); assay: Inhibitory effect against 2019-nCoV (COVID-19) viruses in Huh 7 cell model, viral RNA by qRT-PCR; assay type: cell-based; settings: for SI: CC50/EC50, Huh 7 cells; for EC50: viral RNA copies in supernatant, 48 h
Protocol: The antiviral activity assay was performed on a Huh 7 cell model. Three replicate wells were set for each assay and the assay was repeated three times in total.
1) In each well of a 24-well cell culture plate, 5×10^4 Huh 7 cells were inoculated. Under the culture conditions of 37° C. and 5% CO2, when the confluence reached 60%, 200 μL of 2019-nCoV (COVID-19) virus solution diluted with a DMEM medium containing 2% FBS were added to each well respectively according to the multiplicity of infection MOI of 0.005. After adsorption for 1 h in a 5% CO2 incubator at 37° C., the virus solution was discarded. The positive control drug and the Azvudine amine phosphate prodrug CL-236 were subjected to 2-fold dilution with a DMEM medium containing 2% FBS from the maximum non-toxic concentration, and added to the cell plate at 500 μL/well. Meanwhile, a control group (drug-free group) was set and the supernatant virus solution was collected at 48 h after infection.
2) RNA quantification of collected viruses by real-time RT-PCR (qRT-PCR):
From the collected supernatant virus solutions, 140 μL were measured separately, and subjected to RNA extraction according to the instruction of the QIAamp viral RNA mini kit. The qRT-PCR detection was carried out using the One Step TB Green PrimeScript PLUS RT-PCR Kit (Perfect Real Time), and the primers were RBD-qF1: 5′-[…]-3′ (SEQ. ID. NO. 1); and RBD-qR1:5′-[…]-3′(SEQ. ID. NO. 2).
The total volume of the reaction system was 20 μL:10 μL of 2× One Step TB Green RT-PCR Buffer 4, 1.2 μL of TaKaRa Ex Taq HS Mix, 0.4 μL of PrimeScript PLUS RTase Mix, 0.8 μL each of RBD-qF1 and RBD-qR1, 0.4 μL of ROX Reference Dye (50×), 2 μL of viral RNA, and 4.4 μL of RNase Free dH2O. The reaction parameters were as follows: reverse transcription at 42° C. for 5 min, pre-denaturation at 95° C. for 10 s, PCR for 40 cycles including denaturation at 95° C. for 10 s and annealing and extension at 60° C. for 30 s.
3) The inhibition rates of the drug at the concentrations were calculated. Inhibition rate (%)=1−viral RNA copies in experimental group/viral RNA copies in drug-free group×100%. At the same time, the median effective concentration (EC50) and therapeutic index (TI) of the drug were calculated, therapeutic index (TI)=concentration cytotoxicity 50% (CC50)/median effective concentration (EC50).

[2] = in vitro; settings: human
[3] = test system: AIDS; settings: as an anti-AIDS drug; cited from earlier work
[4] = test system: novel coronaviruses; assay: in vitro antiviral activity in MRC-5 cells infected with the novel coronaviruses; assay type: cell-based; settings: MRC5
From the text: The inventors have determined the in vitro antiviral activity of Compound 1 in MRC-5 cells infected with the novel coronaviruses.

[5] = test system: novel coronavirus (COVID-19) pneumonia; assay: Clinical trial in patients with novel coronavirus (COVID-19) pneumonia; settings: for Clinical advantage versus control (nucleic acid clearance rate, course of clearance, cure rate, course of cure): compared with the conventional treatment (Kaletra control)
[6] = Severe acute respiratory syndrome coronavirus 2, Huh 7 cells
[7] = individual patients, 10 per group, Azvudine 5 mg daily oral, Kaletra + arbidol + interferon control

SMILES | SI [1] | EC50 [1, 6] [µM] | CC50 [2] [µM] | inhibition at 0.1 µM ([1]; Severe acute respiratory syndrome coronavirus 2, 0.1 uM, Huh 7 cells, MOI 0.005, 48 h after infection, read-out: Virus Inhibition Rate (%)) [%] | inhibition at 0.4 µM ([1]; Severe acute respiratory syndrome coronavirus 2, 0.4 uM, Huh 7 cells, MOI 0.005, 48 h after infection, read-out: Virus Inhibition Rate (%)) [%] | inhibition at 1.6 µM ([1]; Severe acute respiratory syndrome coronavirus 2, 1.6 uM, Huh 7 cells, MOI 0.005, 48 h after infection, read-out: Virus Inhibition Rate (%)) [%] | inhibition at 6.4 µM ([1]; Severe acute respiratory syndrome coronavirus 2, 6.4 uM, Huh 7 cells, MOI 0.005, 48 h after infection, read-out: Virus Inhibition Rate (%)) [%] | inhibition at 25.6 µM ([1]; Severe acute respiratory syndrome coronavirus 2, 25.6 uM, Huh 7 cells, MOI 0.005, 48 h after infection, read-out: Virus Inhibition Rate (%)) [%] | inhibition at 102.4 µM ([1]; Severe acute respiratory syndrome coronavirus 2, 102.4 uM, Huh 7 cells, MOI 0.005, 48 h after infection, read-out: Virus Inhibition Rate (%)) [%] | Safety in phase II clinical trials [3] | EC50 [4] [µM] | Clinical advantage versus control (nucleic acid clearance rate, course of clearance, cure rate, course of cure) [5] | Clinical advantage versus control (nucleic acid clearance rate, course of clearance, cure rate, course of cure) ([5]; listed as compound of formula (1)) | Drug-related toxic and side effects during the treatment ([5]; human, in vivo) | From inclusion confirmed by nucleic acid test to clearance [5, 7] | From inclusion confirmed by nucleic acid test to discharge [5, 7] | Patients discharged within 8 days ([5]; of 10 patients in the group) | Patients turned negative by the nucleic acid test ([5]; of 10 patients in the group) | Time to turn negative after start of treatment ([5]; one patient who had failed supportive treatment with Kaletra)
CCC(CC)COC(=O)[C@H](C)N[P@](=O)(OC[C@H]1O[C@@](C#N)(c2ccc3c(N)ncnn23)[C@H](O)[C@@H]1O)Oc1ccccc1 [Remdesivir, reference compound] | >30.0 | 1.5 | > 45 |  |  |  |  |  |  |  |  |  |  |  |  |  |  |  | 
CC(C)OC(=O)[C@H](C)NP(=O)(OCC1(N=[N+]=[N-])OC(n2ccc(N)nc2=O)C(F)C1O)Oc1ccccc1 (stereo partly shown) [CL-236] | 20.7 | 3.2 | 66.2 | 9.38 | 18.8 | 37.5 | 65.6 | 75 | 81.2 |  |  |  |  |  |  |  |  |  | 
[N-]=[N+]=NC1(CO)OC(n2ccc(N)nc2=O)C(F)C1O (stereo not shown) [Compound 1, Azvudine] |  |  |  |  |  |  |  |  |  | good safety | 25 | significant clinical therapeutic advantages | obvious advantages | no drug-related toxic and side effects were found | Clearance: day 4; also recorded: Clearance: day 2; also recorded: one week; also recorded: Clearance: day 3 | Discharge: day 7; also recorded: Discharge: day 6; also recorded: Discharge: day 8; also recorded: Discharge: day 5 | seven | 10 | three days
